The source of these data is US8871812B2, “Therapeutic regimen comprising PEG-interferon, ribavirin and VX-950 for the treatment of hepatitis” (priority 2008, dated 2014).

On the set-up of data set [1]: species or system human. The conditions noted are these: in vivo. The source says: This study was designed to provide information on the kinetics of HCV following treatment with VX-950 and peginterferon alfa-2a administered over 14 days.
This study randomized twenty treatment-naïve patients with chronic genotype 1 hepatitis C infection to three dosing arms (Table 6). At the completion of the 14-day study, 19 of 20 patients chose to begin peginterferon alfa-2a/ribavirin, starting within 5 days of completing the 14-day dosing period; as the other one declined to take the combination of Peg-IRN-2a and ribavirin. Clinic visits were conducted at the discretion of the investigators, after completion of the 1-week and 12-week study-mandated follow-up visits. Nineteen patients have been followed through 24 weeks after the completion of the study dosing. After discussion with the treating physicians, ten (4 in VX-950 and 6 in VX-950/peginterferon alfa-2a) patients stopped peginterferon alfa-2a/ribavirin treatment at 24 weeks.

The test system of data set [2] is alanine aminotransferase (ALT). The experiment in a line: Serum ALT level during 14-day VX-950 dosing. Format: in vivo, human. The settings on record: all groups, elevated at baseline. An excerpt:
The serum alanine aminotransferase (ALT) level can be measured using commercially available methods. Mean ALT levels, elevated at baseline, decreased during dosing in all groups. Mean ALT levels increased, returned toward baseline, in all dose groups during follow up.

For another data set, the system named is HCV genotype 1. Description: C208 Phase 2 study of telaprevir q8h or q12h with peginterferon alfa-2a or alfa-2b and ribavirin: HCV RNA. Format: in vivo, human. The conditions noted are these: for RVR (subjects with undetectable HCV RNA, <10 IU/mL, at week 4): listed as TVR. On the procedure: Background: Study 0208 is an ongoing open-label, randomized Phase 2 study of telaprevir (TVR) administered q8h or q12h in combination with peginterferon-alfa-2a (peginterferon-alfa-2a) or peginterferon-alfa-2b and ribavirin (T/PR) in treatment-naïve subjects with HCV genotype 1 infection. We report the results of an interim analysis conducted at week 12 of treatment.
Subjects in all arms received T/PR treatment for 12 weeks, and will subsequently receive either 12 or 36 additional weeks of PR based on rapid virologic response (RVR) criterion. Subjects who met the definition of viral breakthrough (≧1-log increase in HCV RNA above nadir) discontinued TVR dosing and will complete 48 weeks of PR. An intent-to-treat analysis was performed when all treated subjects had completed week 4 of treatment or had discontinued earlier than week 4. The analysis also assessed all treatment or TVR dosing discontinuations including subjects who discontinued beyond week 4, up to the time of data cutoff. The proportion of subjects with HCV RNA below the limit of detection (TaqMan assay LOD 10 IU/mL) at week 4 (RVR) is reported.
C208 is an ongoing, open-label, randomized, multicenter, Phase 2 exploratory study. Adult, treatment-naïve subjects with chronic HCV genotype 1 infection were enrolled, including subjects with bridging fibrosis. Inclusion criteria were consistent with those used in prior HCV studies. Subjects received 12 weeks of T/PR, followed by either 12 or 36 additional weeks of PR based on extended rapid virologic response (RVR) criterion (FIG. 1). Subjects with HCV RNA>1000 IU/mL at Week 4, 6 or 8 were required to discontinue TVR dosing and complete 48 weeks of PR.
An interim intent-to-treat (ITT) analysis was performed and is presented in this report, which includes data obtained for all subjects randomized had completed week 12 of treatment or had discontinued earlier. The primary efficacy endpoint was the proportion of subjects with HCV RNA below the limit of detection (LOD, 10 IU/mL) at different timepoints throughout the first 12 weeks of dosing. HCV RNA levels were measured using the TAQMAN™ HCV RNA assay v2.0 (Roche Molecular Systems Inc., Branchburg, N.J., U.S.A.).
Assessment of virologic breakthrough (defined as a >1-log 10 increase in HCV RNA from nadir, or HCV RNA>100 IU/mL in subjects whose HCV RNA had previously become undetectable [<10 IU/mL] at all assessment timepoints) was performed. Pharmacokinetics and viral dynamics were assessed by pre-defined serial measurements of plasma concentrations of TVR and HCV RNA, respectively, from baseline to Week 12. Pharmacokinetic analysis of TVR was performed using non-compartmental methods for data from full pharmacokinetic profiles. A viral dynamics model, which included fixed effects for treatment and random effects for clearance, drug effect, drop and death rate in infected cells with unstructured variance covariance matrix, was also constructed. Safety and tolerability were assessed by monitoring adverse events (AEs), laboratory abnormalities and cardiovascular parameters.

The test system of a further data set is WT-HCV protease-SEAP. The conditions noted are these: SCID mice expressing WT-HCV protease-SEAP; see WO 2005/025517; cited from earlier work.
Data set [3] relates to AST (aspartate aminotransferase). Description: AST level upon administration of VX-950. Format: in vivo. The source says: ALT is an enzyme that is present in liver cells; when liver cells are damaged or inflamed, ALT leaks from the cell into the blood. Blood ALT levels are useful as a marker of liver inflammation or damage.
A further data set deals with WT HCVpro. Description: IFN dependent gene expression / IFNβ promoter activity in Sendai virus infected Huh7 cells. Format: cell-based. An excerpt: IFNβ promoter activity decreases in response to Sendai virus stimulation in the presence of WT HCVpro.
Data set [4] is described as follows: Oral bioavailability and plasma trough levels of VX-950. Format: in vivo. The source says:
The trough level is the concentration that a drug drops down to in plasma just before next dose (i.e., the minimum concentration between doses). It is important, particularly in viral diseases, to maintain drug levels above a certain concentration to maintain appropriate inhibition of viral replication.
Accordingly, preferred pharmaceutical compositions of this invention are formulated for oral administration.

[5] abbreviates: Week 4, range across the four treatment groups.

Turning to `CCC[C@H](NC(=O)[C@@H]1[C@H]2CCC[C@H]2CN1C(=O)[C@@H](NC(=O)[C@@H](NC(=O)c1cnccn1)C1CCCCC1)C(C)(C)C)C(=O)C(=O)NC1CC1` [VX-950], the Tolerability entry in data set [1] is recorded as “well tolerated”. In data set [2], the “Mean ALT levels” value is given as “decreased”. Besides, the “subjects who achieved <10 IU/mL HCV RNA” value in the data set on HCV genotype 1 (setting [5]) was 67-83%; in the data set with HCV genotype 1 (Week 12, range across the four treatment groups) it was 83-93%. Further, in the data set with HCV genotype 1 (setting [5]), the “subjects who achieved <25 IU/mL HCV RNA” value is 87-96%. For the same compound, the “RVR (subjects with undetectable HCV RNA, <10 IU/mL, at week 4)” value in the data set on HCV genotype 1 (arm A: TVR 750 mg q8h + Peg-IFN alfa-2a 180 μg/wk + ribavirin 1000-1200 mg/d (N 40)) worked out at 82%; with HCV genotype 1 (arm B: TVR 750 mg q8h + Peg-IFN alfa-2b 1.5 μg/kg/wk + ribavirin 800-1200 mg/d (N 42)), 71%; in the data set with HCV genotype 1 (arm C: TVR 1125 mg q12h + Peg-IFN alfa-2a 180 μg/wk + ribavirin 1000-1200 mg/d (N 40)), 85%; in the data set on HCV genotype 1 (arm D: TVR 1125 mg q12h + Peg-IFN alfa-2b 1.5 μg/kg/wk + ribavirin 800-1200 mg/d (N 39)), 68%. Moreover, the “number of subjects with viral breakthrough up to week 4” value amounted to 0 in the data set on HCV genotype 1 (arm A: TVR 750 mg q8h + Peg-IFN alfa-2a + RBV), 2 in the data set on HCV genotype 1 (arm B: TVR 750 mg q8h + Peg-IFN alfa-2b + RBV), 2 in the data set with HCV genotype 1 (arm C: TVR 1125 mg q12h + Peg-IFN alfa-2a + RBV) and 1 in the data set with HCV genotype 1 (arm D: TVR 1125 mg q12h + Peg-IFN alfa-2b + RBV). In addition, the “additional breakthroughs after discontinuation of TVR” value in the data set on HCV genotype 1 (both in patients infected with genotype 1a) amounted to 2. The “Patients with viral breakthrough while on TVR” value is 1 in the data set on HCV genotype 1 (q8hr alfa-2a arm), 3 with HCV genotype 1 (q8hr alfa-2b arm), 2 in the data set on HCV genotype 1 (q12 hr alfa-2a arm) and 3 in the data set on HCV genotype 1 (q12 hr alfa-2b arm). In addition, in the data set with WT-HCV protease-SEAP, the “Effect on elevated ALT levels” value is “ameliorates elevated ALT levels”. For the same compound, the AST levels result in data set [3] was “decreased”. In addition, in the data set with WT HCVpro (Sendai virus infected Huh7 cells), the “IFN dependent gene expression” value is “restores IFN dependent gene expression”. The IFNβ promoter activation result with WT HCVpro (Sendai virus stimulation in the presence of WT HCVpro) is on record as “overcomes the WT HCVpro mediated suppression of IFNβ promoter activation”. Also, in data set [4] (750 mg every 8 hours), the Plasma trough levels result is given as “higher trough levels”. Also, in data set [4] (in vivo, po), the Oral bioavailability result was “orally bioavailable”.
